Results from patent US10202361B2, “Pyridazinones as herbicides” (E I DU PONT DE NEMOURS AND COMPANY, priority 2014, dated 2019).

Legend:
Experiment in all cases: Test D pre-/postemergence controlled growth environment herbicide test
Assay type in all cases: in vivo
Conditions in all cases: scale 0 to 100
[1] = test system: wheat, winter (winter wheat, Triticum aestivum)
Outline: (§1)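 Pre-emergence treatment on silt loam soil and post-emergence treatment of 1- to 4-leaf plants (2–18 cm) in peat-based medium, compounds in a non-phytotoxic solvent with surfactant. Visual rating against untreated controls after 14–21 d in a controlled environment, scale 0 (no effect) to 100 (complete control).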

kochia (Kochia scoparia) = test system: kochia (Kochia scoparia)
Outline: as §1

[2] = test system: galium (catchweed bedstraw, Galium aparine)
Outline: as §1

[3] = test system: barley, spring (spring barley, Hordeum vulgare)
Outline: as §1

[4] = test system: downy bromegrass (Bromus tectorum)
Outline: as §1

[5] = test system: barley, winter (winter barley, Hordeum vulgare)
Outline: as §1

[6] = test system: buckwheat, wild (wild buckwheat, Polygonum convolvulus)
Outline: as §1

[7] = test system: pigweed (Amaranthus retroflexus)
Outline: as §1

[8] = test system: mustard, wild (wild mustard, Sinapis arvensis)
Outline: as §1

[9] = test system: ryegrass, Italian (Italian ryegrass, Lolium multiflorum)
Outline: as §1

[10] = test system: oilseed rape (Brassica napus)
Outline: as §1

Cc1cc(=O)n(-c2ccc(C(F)(F)F)cc2)nc1Cc1ccnc(C(F)(F)F)c1 [Compound 2, 5-methyl-2-[4-(trifluoromethyl)phenyl]-6-[[2-(trifluoromethyl)-4-pyridinyl]methyl]-3(2H)-pyridazinone]
Plant response rating ([1]; Postemergence, 31 g ai/ha): 10
Plant response rating ([1]; Postemergence, 62 g ai/ha): 10
Plant response rating ([1]; Postemergence, 125 g ai/ha): 15
Plant response rating ([1]; Postemergence, 250 g ai/ha): 15
Plant response rating ([1]; Postemergence, 500 g ai/ha): 20
Plant response rating ([1]; Preemergence, 31 g ai/ha): 0
Plant response rating ([1]; Preemergence, 62 g ai/ha): 0
Plant response rating ([1]; Preemergence, 125 g ai/ha): 30
Plant response rating ([1]; Preemergence, 250 g ai/ha): 40
Plant response rating ([1]; Preemergence, 500 g ai/ha): 45
Plant response rating (kochia (Kochia scoparia); Postemergence, 31 g ai/ha): 40
Plant response rating (kochia (Kochia scoparia); Postemergence, 62 g ai/ha): 70
Plant response rating (kochia (Kochia scoparia); Postemergence, 125 g ai/ha): 80
Plant response rating (kochia (Kochia scoparia); Postemergence, 250 g ai/ha): 85
Plant response rating (kochia (Kochia scoparia); Postemergence, 500 g ai/ha): 85
Plant response rating (kochia (Kochia scoparia); Preemergence, 31 g ai/ha): 20
Plant response rating (kochia (Kochia scoparia); Preemergence, 62 g ai/ha): 30
Plant response rating (kochia (Kochia scoparia); Preemergence, 125 g ai/ha): 100
Plant response rating (kochia (Kochia scoparia); Preemergence, 250 g ai/ha): 100
Plant response rating (kochia (Kochia scoparia); Preemergence, 500 g ai/ha): 100
Plant response rating ([2]; Postemergence, 31 g ai/ha): 40
Plant response rating ([2]; Postemergence, 62 g ai/ha): 40
Plant response rating ([2]; Postemergence, 125 g ai/ha): 50
Plant response rating ([2]; Postemergence, 250 g ai/ha): 75
Plant response rating ([2]; Postemergence, 500 g ai/ha): 85
Plant response rating ([2]; Preemergence, 31 g ai/ha): 0
Plant response rating ([2]; Preemergence, 125 g ai/ha): 75
Plant response rating ([2]; Preemergence, 250 g ai/ha): 100
Plant response rating ([2]; Preemergence, 500 g ai/ha): 100
Plant response rating ([3]; Postemergence, 31 g ai/ha): 10
Plant response rating ([3]; Postemergence, 62 g ai/ha): 10
Plant response rating ([3]; Postemergence, 125 g ai/ha): 10
Plant response rating ([3]; Postemergence, 250 g ai/ha): 15
Plant response rating ([3]; Postemergence, 500 g ai/ha): 25
Plant response rating ([3]; Preemergence, 31 g ai/ha): 0
Plant response rating ([3]; Preemergence, 62 g ai/ha): 0
Plant response rating ([3]; Preemergence, 125 g ai/ha): 0
Plant response rating ([3]; Preemergence, 250 g ai/ha): 25
Plant response rating ([3]; Preemergence, 500 g ai/ha): 50
Plant response rating ([4]; Postemergence, 31 g ai/ha): 10
Plant response rating ([4]; Postemergence, 62 g ai/ha): 30
Plant response rating ([4]; Postemergence, 125 g ai/ha): 30
Plant response rating ([4]; Postemergence, 250 g ai/ha): 40
Plant response rating ([4]; Postemergence, 500 g ai/ha): 45
Plant response rating ([4]; Preemergence, 31 g ai/ha): 0
Plant response rating ([4]; Preemergence, 62 g ai/ha): 0
Plant response rating ([4]; Preemergence, 125 g ai/ha): 0
Plant response rating ([4]; Preemergence, 250 g ai/ha): 20
Plant response rating ([4]; Preemergence, 500 g ai/ha): 25
Plant response rating ([5]; Postemergence, 31 g ai/ha): 10
Plant response rating ([5]; Postemergence, 62 g ai/ha): 15
Plant response rating ([5]; Postemergence, 125 g ai/ha): 15
Plant response rating ([5]; Postemergence, 250 g ai/ha): 20
Plant response rating ([5]; Postemergence, 500 g ai/ha): 25
Plant response rating ([5]; Preemergence, 31 g ai/ha): 0
Plant response rating ([5]; Preemergence, 62 g ai/ha): 0
Plant response rating ([5]; Preemergence, 125 g ai/ha): 30
Plant response rating ([5]; Preemergence, 250 g ai/ha): 30
Plant response rating ([5]; Preemergence, 500 g ai/ha): 50
Plant response rating ([6]; Postemergence, 31 g ai/ha): 20
Plant response rating ([6]; Postemergence, 62 g ai/ha): 30
Plant response rating ([6]; Postemergence, 125 g ai/ha): 50
Plant response rating ([6]; Postemergence, 250 g ai/ha): 70
Plant response rating ([6]; Postemergence, 500 g ai/ha): 80
Plant response rating ([6]; Preemergence, 31 g ai/ha): 0
Plant response rating ([6]; Preemergence, 62 g ai/ha): 20
Plant response rating ([6]; Preemergence, 125 g ai/ha): 25
Plant response rating ([6]; Preemergence, 250 g ai/ha): 100
Plant response rating ([6]; Preemergence, 500 g ai/ha): 100
Plant response rating ([7]; Postemergence, 31 g ai/ha): 20
Plant response rating ([7]; Postemergence, 62 g ai/ha): 20
Plant response rating ([7]; Postemergence, 125 g ai/ha): 20
Plant response rating ([7]; Postemergence, 250 g ai/ha): 30
Plant response rating ([7]; Postemergence, 500 g ai/ha): 30
Plant response rating ([7]; Preemergence, 31 g ai/ha): 30
Plant response rating ([7]; Preemergence, 62 g ai/ha): 60
Plant response rating ([7]; Preemergence, 125 g ai/ha): 70
Plant response rating ([7]; Preemergence, 250 g ai/ha): 85
Plant response rating ([7]; Preemergence, 500 g ai/ha): 100
Plant response rating ([8]; Postemergence, 31 g ai/ha): 10
Plant response rating ([8]; Postemergence, 62 g ai/ha): 70
Plant response rating ([8]; Postemergence, 125 g ai/ha): 80
Plant response rating ([8]; Postemergence, 250 g ai/ha): 100
Plant response rating ([8]; Postemergence, 500 g ai/ha): 100
Plant response rating ([8]; Preemergence, 31 g ai/ha): 0
Plant response rating ([8]; Preemergence, 62 g ai/ha): 100
Plant response rating ([8]; Preemergence, 125 g ai/ha): 100
Plant response rating ([8]; Preemergence, 250 g ai/ha): 100
Plant response rating ([8]; Preemergence, 500 g ai/ha): 100
Plant response rating ([9]; Postemergence, 31 g ai/ha): 0
Plant response rating ([9]; Postemergence, 62 g ai/ha): 10
Plant response rating ([9]; Postemergence, 125 g ai/ha): 15
Plant response rating ([9]; Postemergence, 250 g ai/ha): 20
Plant response rating ([9]; Postemergence, 500 g ai/ha): 25
Plant response rating ([9]; Preemergence, 31 g ai/ha): 0
Plant response rating ([9]; Preemergence, 62 g ai/ha): 0
Plant response rating ([9]; Preemergence, 125 g ai/ha): 25
Plant response rating ([9]; Preemergence, 250 g ai/ha): 30
Plant response rating ([9]; Preemergence, 500 g ai/ha): 35
Plant response rating ([10]; Postemergence, 31 g ai/ha): 60
Plant response rating ([10]; Postemergence, 62 g ai/ha): 75
Plant response rating ([10]; Postemergence, 125 g ai/ha): 80
Plant response rating ([10]; Postemergence, 250 g ai/ha): 98
Plant response rating ([10]; Postemergence, 500 g ai/ha): 100
Plant response rating ([10]; Preemergence, 31 g ai/ha): 20
Plant response rating ([10]; Preemergence, 62 g ai/ha): 20
Plant response rating ([10]; Preemergence, 125 g ai/ha): 50
Plant response rating ([10]; Preemergence, 250 g ai/ha): 95
Plant response rating ([10]; Preemergence, 500 g ai/ha): 95
